What is called inhibition is the relative decrease from the control value, in per cent.

Data on 14 compounds can be found in patent publication US20260256747A1, “ARYL-TRIAZOLYL AND RELATED GPR84 ANTAGONISTS AND USES THEREOF” (Liminal BioSciences Limited, priority 2022, published 2026).

T1 sequence (Q9NQS5 whole entry): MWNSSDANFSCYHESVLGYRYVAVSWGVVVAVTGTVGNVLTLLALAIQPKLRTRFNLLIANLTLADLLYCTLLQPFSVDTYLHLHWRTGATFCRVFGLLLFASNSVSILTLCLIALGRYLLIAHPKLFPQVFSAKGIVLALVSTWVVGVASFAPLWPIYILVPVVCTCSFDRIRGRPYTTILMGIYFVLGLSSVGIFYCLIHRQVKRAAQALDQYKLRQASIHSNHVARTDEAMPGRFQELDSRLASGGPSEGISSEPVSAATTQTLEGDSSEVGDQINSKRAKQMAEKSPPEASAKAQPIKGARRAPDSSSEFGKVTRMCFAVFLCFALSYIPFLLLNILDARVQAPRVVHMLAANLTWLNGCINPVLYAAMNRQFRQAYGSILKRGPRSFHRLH

The test system of the first test is mouse dextran sodium sulfate-induced chronic inflammatory bowel disease model.
Assay: not given
Conditions: once-daily doses of 3 and 10 mg/kg; efficacy similar to sulfasalazine; cited from earlier work.
In the case of `O=c1nc(OC[C@@H]2COCCO2)cc2n1CCc1cc(C#CC3CC3)ccc1-2` [GLPG1205], the “disease activity index score” value is “reduced” and the neutrophil infiltration result is “reduced”.

A further test addresses T1, human GPR84 receptor (Homo sapiens, UniProt Q9NQS5).
T1 construct: host or cells: HEK293 cells, transient transfection
In words: Gαi biosensor BRET assay in HEK293 cells transfected with GPR84, stimulated with the GPR84 agonist ZQ-16. It is filed as cell-based. To be noted: HEK293, single concentration, concentration class A = 2 μM, 200 nmol/L ZQ-16. On the technique in general: BRET reads energy transfer from a luciferase to a nearby fluorophore.
As to `Cc1ccc(C#CC2CC2)cc1C(F)(F)c1cn(CC(=O)N(C)C)nn1` [Compound I-263], the inhibition at 2 µM was 25 to 50%.

For `Cc1ccc(C#CC2CC2)cc1C(F)(F)c1cn(CC2OCC3(CC3)CO2)nn1` [Compound I-264], the inhibition at 2 µM is above 75%.

Staying with this test, now noted: HEK293, single concentration, concentration class F = 10 μM, 200 nmol/L ZQ-16.
Compound `Cc1cc(C#CC2CC2)cnc1-c1nnc(-c2cn(CC3OCC4(CC4)CO3)nn2)o1` [Compound I-256] registered an inhibition at 10 µM of at most 25%.

In the case of `Fc1cc(C#CC2CC2)ccc1-c1nnc(-c2cn(CC3OCC4(CC4)CO3)nn2)o1` [Compound I-257], the inhibition at 10 µM was above 75%.

`Fc1ccc(C#CC2CC2)cc1-c1nnc(-c2cn(CC3OCC4(CC4)CO3)nn2)o1` [Compound I-258]: the inhibition at 10 µM was in the range of 25 to 50%.

Regarding `Cc1cc(C#CC2CC2)ccc1-c1nnc(-c2cn(CC(=O)N(C)C)nn2)o1` [Compound I-259], the inhibition at 10 µM is at most 25%.

Turning to `Cc1ccc(C#CC2CC2)cc1-c1nnc(-c2cn(CC(=O)N(C)C)nn2)o1` [Compound I-260], the inhibition at 10 µM is at most 25%.

For `CN(C)C(=O)Cn1cc(-c2nnc(-c3ccc(C#CC4CC4)cc3F)o2)nn1` [Compound I-261], the inhibition at 10 µM was at most 25%.

Regarding `CN(C)C(=O)Cn1cc(-c2nnc(-c3cc(C#CC4CC4)ccc3F)o2)nn1` [Compound I-262], the inhibition at 10 µM is at most 25%.

Regarding `N=C(N)c1cnc(-c2cn(CC3OCC4(CC4)CO3)nn2)c(OC2CC2)c1` [Compound I-265], the inhibition at 10 µM was in the range of 25 to 50%.

`CN1CCN(C(=O)Cn2cc(-c3ncc(C#CC4CC4)cc3OC3CC3)nn2)CC1` [Compound I-266] showed an inhibition at 10 µM of 25 to 50%.

As to `O=C(Cn1cc(-c2ncc(C#CC3CC3)cc2OC2CC2)nn1)N1CCCCC1` [Compound I-267], the inhibition at 10 µM is above 75%.

Take `O=C(Cn1cc(-c2ncc(C#CC3CC3)cc2OC2CC2)nn1)N1CCOCC1` [Compound I-268]: the inhibition at 10 µM fell in the range of 25 to 50%.
